Consider 8 compounds from patent US9643941B2, “2,2′-tandem dithiazole compound, preparation method therefor, and use thereof” (SHANGHAI INSTITUTE OF MATERIA MEDICA, CHINESE ACADEMY OF …, priority 2014, dated 2017).

One may read the IC50 as the point on the concentration scale where inhibition reaches its midpoint.

Read-outs that look alike come from different tables or passages of the source.

Test [1] concerns the target Human source HDAC4 (Homo sapiens, UniProt P56524). Put plainly: Inhibition activity against histone deacetylase 4 (fluorescence, AMC substrate). It is filed as biochemical. The method, then: The test was carried out to show the inhibition activity of the compounds in this patent application against human source histone deacetylases 1, 3, 4, 6.
(§1) 2. Materials for the Test: • Human source HDAC1, HDAC3, HDAC4, and HDAC6 were obtained by the Group of Doctor LI Jia in Shanghai Institute of Materia Medica by using the baculovirus expression system and purifying. • Substrate: HDAC1, 3, 4: Ac-Lys-Tyr-Lys (Ac)-AMC; • HDAC6: Boc-lys (Ac)-AMC • ∠All were purchased from GL Biochem (Shanghai) Ltd.;
(§2) Enzyme activity was measured in 96-well or 384-well flat-bottom microplates using fluorescence detection. […] The initial reaction speed was calculated by detecting the changes of the fluorescence signal over time.
(§3) Sample treatment: The sample was dissolved in DMSO and stored at low temperature.
(§4) Illustration about the data processing and the result: In the first screening, the activity of the sample was tested at a single concentration, e.g., 20 μg/ml. […] The bottom and top of the fitting curve were set to 0 and 100 for the most inhibitor screening models.

For test [2], the target named is T1, Human source HDAC6 (Homo sapiens, UniProt Q9UBN7).
T1 sequence (Q9UBN7 1-1215): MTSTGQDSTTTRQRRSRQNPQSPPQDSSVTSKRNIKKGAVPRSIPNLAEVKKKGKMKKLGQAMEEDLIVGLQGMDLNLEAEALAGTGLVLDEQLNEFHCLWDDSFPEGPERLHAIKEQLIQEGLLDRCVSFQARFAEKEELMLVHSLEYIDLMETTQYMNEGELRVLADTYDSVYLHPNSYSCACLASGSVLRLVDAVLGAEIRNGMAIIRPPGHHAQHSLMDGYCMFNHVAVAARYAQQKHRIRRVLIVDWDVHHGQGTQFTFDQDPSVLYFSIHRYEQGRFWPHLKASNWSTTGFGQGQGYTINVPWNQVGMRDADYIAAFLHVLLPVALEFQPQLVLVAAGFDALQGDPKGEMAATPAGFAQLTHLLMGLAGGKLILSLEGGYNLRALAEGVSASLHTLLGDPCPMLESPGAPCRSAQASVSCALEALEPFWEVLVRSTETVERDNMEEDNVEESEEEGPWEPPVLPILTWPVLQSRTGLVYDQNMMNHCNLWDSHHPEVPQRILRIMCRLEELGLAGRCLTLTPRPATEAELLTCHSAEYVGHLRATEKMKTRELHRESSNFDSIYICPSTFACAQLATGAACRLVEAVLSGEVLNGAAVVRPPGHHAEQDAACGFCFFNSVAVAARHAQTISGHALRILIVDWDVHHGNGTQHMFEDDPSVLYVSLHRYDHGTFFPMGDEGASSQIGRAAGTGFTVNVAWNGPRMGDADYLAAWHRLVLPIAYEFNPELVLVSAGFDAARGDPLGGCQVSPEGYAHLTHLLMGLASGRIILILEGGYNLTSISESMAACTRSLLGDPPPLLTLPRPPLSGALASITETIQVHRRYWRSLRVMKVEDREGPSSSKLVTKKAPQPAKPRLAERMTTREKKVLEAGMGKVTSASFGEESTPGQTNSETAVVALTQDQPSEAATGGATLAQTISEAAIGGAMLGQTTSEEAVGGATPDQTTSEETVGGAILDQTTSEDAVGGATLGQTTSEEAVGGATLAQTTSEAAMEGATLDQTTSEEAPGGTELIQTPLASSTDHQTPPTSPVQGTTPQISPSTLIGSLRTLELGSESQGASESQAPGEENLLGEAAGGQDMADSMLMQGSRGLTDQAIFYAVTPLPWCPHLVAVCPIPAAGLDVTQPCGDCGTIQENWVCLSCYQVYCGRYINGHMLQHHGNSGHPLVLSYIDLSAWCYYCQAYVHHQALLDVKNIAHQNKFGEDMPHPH
Put plainly: Inhibition activity against histone deacetylase 6 (fluorescence, AMC substrate). It counts as biochemical. The note with it: for IC50: IC50 ± SD/SE. The method, then:
as §1, §2, §3, §4

Test [3] deals with Human source HDAC1 (Homo sapiens, UniProt Q13547). The test is described as follows: Inhibition activity against histone deacetylase 1 (fluorescence, AMC substrate). It is filed as biochemical. The note with it: IC50 ± SD/SE. As for the experimental part:
as §1, §2, §3, §4

Test [4] has as its target Human source HDAC3 (Homo sapiens, UniProt O15379). The test is described as follows: Inhibition activity against histone deacetylase 3 (fluorescence, AMC substrate). It is filed as biochemical. The note with it: IC50 ± SD/SE. As for the experimental part:
as §1, §2, §3, §4

In test [5] the test system is EAE mouse model. The test is described as follows: Drug efficacy in EAE mouse model. It counts as in vivo. The method, then:
The activity of the compound as a histone deacetylase inhibitor in the treatment of EAE was tested by drug efficacy tests for compounds in the EAE mouse model.
Antigen MOG35-55 ([…]) was added with complete Freund's adjuvant (comprising 5 mg/ml of inactivated Mycobacterium tuberculosis) to be emulsified. 8-week aged female C57BL/6 mouse was injected subcutaneously with 200 μg of emulsified MOG35-55 antigen, while 200 ng of pertussis toxin was injected into each mouse. The day of induction was day 0. On day 2, 200 ng of pertussis toxin was further injected to each mouse. The symptoms of the mice were scored and recorded daily. The scoring rules were as follows,
0 point: normal, asymptomatic
3 points: the mouse was paralysis of hind limbs, and the mouse was loss of mobility.
4 points: the mouse was weakness or paralysis of forelimbs.
5 points: the mouse was dead or dying
2. Materials for the Test: • EAE mouse: Shanghai Slac Laboratory Animal Co., Ltd.; • Antigen MOG35˜55: GL Biochem (Shanghai) Ltd.;
The drug was directly added with the CMC—Na, ground and ultrasonic suspended into a uniform state. The dose was 10 mg/kg, twice a day by intragastric administration. The control group was directly administrated with PBS.

The test system of test [6] is human source multiple myeloma cell line 8266. The test is described as follows: Anti-tumor activity test in cellular level (MTT). The note with it: for IC50: Homo sapiens, Multiple myeloma cell, 72 h, read-out: IC50 on human multiple myeloma cell line 8266.
Procedure: Tetrazolium salts (MTT) colorimetry was used, the analytic method is based on the metabolic reduction of 3-(4,5-dimethyl-2-thiazolyl)-2,5-diphenyltetrazolium bromide (MTT). The NADP-related dehydrogenase existing in the mitochondria of living cells can reduce the yellow MTT to insoluble bluish violet Formazan, but the enzyme is disappeared in dead cells and MTT cannot be reduced. The optical density was measured at a wavelength of 550/690 nm using a microplate reader after Formazan was dissolved in DMSO.
The cell viability was measured by MTT assay. Cells in logarithmic growth phase were digested with 0.05% trypsin and cell numbers were counted, then 100 μL was inoculated in 96-well plate at a cell density of 2.0×10^3/well, and the plate was placed in an incubator with 5% CO2 at 37° C. overnight. Six concentration gradients were set up for each compound and three wells were set for each concentration. The compound of each concentration was added to the corresponding wells, and incubated at 37° C. in an incubator with 5% CO2 for 72 hours, and then 20 μL of 5 mg/mL MTT was added to each well. After incubation for 3 hours at 37° C., the supernatant was discarded, the remained was added with 100 μL of DMSO to be dissolved, the absorbing value was measured at the light of 550 nm (L1) using a SpectraMAX 340, and the reference wavelength was 690 nm (L2). The value of (L1-L2) was plotted against the concentration of inhibiting agent, and the IC50 was obtained by fitting the formula.
Illustration about the data processing and the result: in the first screening, the activity of the sample was tested at a single concentration, e.g., 20 μg/ml. […] The bottom and top of the fitting curve were set to 0 and 100 for the most inhibitor screening models.
Setting [7] is: IC50 ± SD/SE, read-out: IC50 HDAC4.

Sequence of Human source HDAC3 (O15379 whole entry): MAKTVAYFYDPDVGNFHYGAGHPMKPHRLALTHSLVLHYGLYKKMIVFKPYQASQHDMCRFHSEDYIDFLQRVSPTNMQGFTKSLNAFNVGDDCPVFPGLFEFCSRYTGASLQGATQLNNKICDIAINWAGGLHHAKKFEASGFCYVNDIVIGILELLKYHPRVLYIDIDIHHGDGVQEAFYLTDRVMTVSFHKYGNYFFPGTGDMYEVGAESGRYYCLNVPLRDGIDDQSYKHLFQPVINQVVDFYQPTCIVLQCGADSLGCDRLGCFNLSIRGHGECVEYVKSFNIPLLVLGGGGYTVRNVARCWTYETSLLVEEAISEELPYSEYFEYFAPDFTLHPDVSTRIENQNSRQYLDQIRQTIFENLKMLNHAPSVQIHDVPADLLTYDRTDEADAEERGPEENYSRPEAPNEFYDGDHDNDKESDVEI
Sequence of Human source HDAC3 (Q9Y618 395-489 partner limits assumed): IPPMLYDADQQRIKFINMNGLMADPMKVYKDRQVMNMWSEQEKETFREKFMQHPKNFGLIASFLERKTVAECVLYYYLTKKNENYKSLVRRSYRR
Sequence of Human source HDAC1 (Q13547 whole entry): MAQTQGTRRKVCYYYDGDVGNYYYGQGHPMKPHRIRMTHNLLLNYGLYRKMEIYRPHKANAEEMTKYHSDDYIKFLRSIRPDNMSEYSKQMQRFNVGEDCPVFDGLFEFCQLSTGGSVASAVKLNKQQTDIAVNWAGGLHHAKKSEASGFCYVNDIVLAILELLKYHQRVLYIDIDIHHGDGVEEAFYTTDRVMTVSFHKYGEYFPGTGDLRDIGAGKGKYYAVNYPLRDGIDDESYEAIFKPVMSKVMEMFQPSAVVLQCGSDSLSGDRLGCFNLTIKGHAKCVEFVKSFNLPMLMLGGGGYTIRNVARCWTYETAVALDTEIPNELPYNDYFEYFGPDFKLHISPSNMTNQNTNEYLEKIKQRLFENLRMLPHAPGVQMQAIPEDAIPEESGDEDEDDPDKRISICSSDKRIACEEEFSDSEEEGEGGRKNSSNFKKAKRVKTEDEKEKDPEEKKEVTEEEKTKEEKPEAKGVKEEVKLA
Sequence of Human source HDAC4 (P56524 whole entry): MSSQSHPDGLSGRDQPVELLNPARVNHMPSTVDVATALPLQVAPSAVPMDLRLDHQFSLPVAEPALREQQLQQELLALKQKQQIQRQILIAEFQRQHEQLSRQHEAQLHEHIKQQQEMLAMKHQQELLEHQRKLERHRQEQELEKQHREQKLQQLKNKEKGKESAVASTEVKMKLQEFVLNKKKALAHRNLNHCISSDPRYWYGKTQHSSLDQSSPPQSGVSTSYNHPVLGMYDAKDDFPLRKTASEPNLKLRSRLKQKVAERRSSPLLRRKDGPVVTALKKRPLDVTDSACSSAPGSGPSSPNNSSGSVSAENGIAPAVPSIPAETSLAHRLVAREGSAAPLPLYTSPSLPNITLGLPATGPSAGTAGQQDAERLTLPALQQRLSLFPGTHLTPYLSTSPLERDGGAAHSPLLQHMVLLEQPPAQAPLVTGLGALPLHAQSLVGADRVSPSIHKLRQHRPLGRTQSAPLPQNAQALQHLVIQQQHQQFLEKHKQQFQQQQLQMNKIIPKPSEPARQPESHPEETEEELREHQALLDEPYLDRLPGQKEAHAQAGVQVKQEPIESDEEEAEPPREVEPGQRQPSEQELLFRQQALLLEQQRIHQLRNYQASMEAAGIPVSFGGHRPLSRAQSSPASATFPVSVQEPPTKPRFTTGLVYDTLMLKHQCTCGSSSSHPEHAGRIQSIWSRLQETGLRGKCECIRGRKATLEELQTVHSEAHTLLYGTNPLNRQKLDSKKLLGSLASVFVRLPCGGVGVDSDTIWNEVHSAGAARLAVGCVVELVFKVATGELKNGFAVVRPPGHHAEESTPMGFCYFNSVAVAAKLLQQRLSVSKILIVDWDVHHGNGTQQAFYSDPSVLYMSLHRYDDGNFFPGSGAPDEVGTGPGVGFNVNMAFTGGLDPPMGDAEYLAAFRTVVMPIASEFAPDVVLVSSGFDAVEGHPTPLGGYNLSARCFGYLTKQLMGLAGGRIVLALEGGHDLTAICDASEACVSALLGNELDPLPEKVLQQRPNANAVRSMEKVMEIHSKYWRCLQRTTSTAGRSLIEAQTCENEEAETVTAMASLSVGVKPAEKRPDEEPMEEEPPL

In the case of `O=C(NCCCCC(=O)C(F)(F)F)c1nc(-c2nccs2)sc1Cc1ccccc1` [HD 54], the IC50 in test [1] (setting [7]) amounted to 70 nM; in test [2] it was 60 nM; in test [3] it was 70 ± 10 nM; in test [4], 60 nM.
On to `O=C(NCCCCC(=O)C(F)(F)F)c1nc(-c2nccs2)sc1C1CC1` [HD 1], for which the IC50 in test [1] (setting [7]) is 20 nM; in test [1] (read-out: IC50 against HDAC4), about 20 nM; in test [6], 333 ± 11 nM. For the same compound, the “incidence of EAE model mice” value in test [5] (10 mg/kg twice a day, intragastric) is on record as “Effectively Reduce the Incidence”. For the same compound, the “therapeutic effect on the clinical symptoms of EAE model mice” value in test [5] (10 mg/kg twice a day, intragastric, clinical score (the FIGURE)) was “good therapeutic effect”. The Incidence number/total number in test [5] (EAE mice, 10 mg/kg twice a day, intragastric) is recorded as 3/6. For the same compound, the “disease severity versus solvent control group” value in test [5] (P<0.01) was “significantly lower”.
Consider `CCc1sc(-c2nccs2)nc1C(=O)NCCCCC(=O)C(F)(F)F` [HD 53], for which the IC50 in test [1] (setting [7]) stood at 40 nM; in test [2], 40 nM; in test [3] it was 50 nM; in test [4], 50 nM.
As for `CC(C)Cc1sc(-c2nccs2)nc1C(=O)NCCCCC(=O)C(F)(F)F` [HD 6], the IC50 in test [1] (setting [7]) was determined as 40 nM; in test [6], 457 ± 12 nM.
`O=C(CO)N/N=C(/CCCCNC(=O)c1nc(-c2nccs2)sc1C1CC1)C(F)(F)F` [HD 46]: the IC50 in test [1] (setting [7]) is 450 ± 30 nM; in test [2] it was 350 ± 10 nM; in test [3], 500 ± 50 nM; in test [4], 400 ± 10 nM; in test [6] it was 117 nM. Besides, the “activity against HDAC6 on changing trifluoroacetyl ketone to hydrazone” value in test [2] is “can be improved”. For the same compound, the “increase of activity at the cellular level compared to CFH367-C” value in test [6] (cell line 8266) is reported as “about 10 times”.
As for `O=C(NCCCCC(=O)C(F)(F)F)c1nc(-c2nc3c(s2)CCCC3)sc1C1CC1` [HD 3], the IC50 in test [1] (setting [7]) stood at 20 nM; in test [6], 240 ± 21 nM.
On to `CC(=O)N/N=C(\CCCCNC(=O)c1nc(-c2nccs2)sc1C1CC1)C(F)(F)F` [HD 37], for which the IC50 came out at 160 ± 10 nM in test [1] (setting [7]); 80 ± 10 nM in test [2]; 180 ± 30 nM in test [3]; 350 nM in test [4]; 2140 ± 22 nM in test [6]. Also, the “activity against HDAC6 on changing trifluoroacetyl ketone to hydrazone” value in test [2] is listed as “can be improved”.
On to `Cc1cnc(-c2nc(C(=O)NCCCCC(=O)C(F)(F)F)c(C3CC3)s2)s1` [HD 55], for which the IC50 in test [1] (setting [7]) was determined as 70 nM; in test [2] it was 20 nM.
